# Experimental data from PMC11277489, “Novel Piperazine Derivatives of Vindoline as Anticancer Agents” (International Journal of Molecular Sciences, 2024).
# Like-named read-outs stand apart in the source and are kept apart here.
# Columns and labels:
# SNB-19 = experiment: NCI60 one-dose screen (10 μM), CNS Cancer; assay type: cell-based; conditions: Homo sapiens
# UACC-257 = experiment: NCI60 one-dose screen (10 μM), Melanoma; assay type: cell-based; conditions: Homo sapiens
# HS 578T = experiment: NCI60 one-dose screen (10 μM), Breast Cancer; assay type: cell-based; conditions: Homo sapiens, read-out: Growth percent rate
# HL-60(TB) = experiment: NCI60 one-dose screen (10 μM), Leukemia; assay type: cell-based; conditions: Homo sapiens
# OVCAR-3 = experiment: NCI60 one-dose screen (10 μM), Ovarian Cancer; assay type: cell-based; conditions: Homo sapiens
# KM12 = experiment: NCI60 one-dose screen (10 μM), Colon Cancer; assay type: cell-based, human; conditions: Homo sapiens
# CCRF-CEM = experiment: NCI60 one-dose screen (10 μM), Leukemia; assay type: cell-based; conditions: Homo sapiens, read-out: Growth percent rate
# MOLT-4 = experiment: NCI60 one-dose screen (10 μM), Leukemia; assay type: cell-based, human; conditions: Homo sapiens
# SK-MEL-5 = experiment: NCI60 one-dose screen (10 μM), Melanoma; assay type: cell-based, human; conditions: Homo sapiens
# NCI-H322M = experiment: NCI60 one-dose screen (10 μM), Non-small Cell Lung Cancer; assay type: cell-based; conditions: Homo sapiens, read-out: Growth percent rate
# LOX IMVI = experiment: NCI60 one-dose screen (10 μM), Melanoma; assay type: cell-based, human; conditions: Homo sapiens, LOX IMVI, read-out: Growth percent rate
# K-562 = experiment: NCI60 one-dose screen (10 μM), Leukemia; assay type: cell-based; conditions: Homo sapiens
# MCF7 = experiment: NCI60 one-dose screen (10 μM), Breast Cancer; assay type: cell-based; conditions: Homo sapiens
# MALME-3M = experiment: NCI60 one-dose screen (10 μM), Melanoma; assay type: cell-based; conditions: Homo sapiens, read-out: Growth percent rate
# IGROV1 = experiment: NCI60 one-dose screen (10 μM), Ovarian Cancer; assay type: cell-based; conditions: Homo sapiens
# EKVX = experiment: NCI60 one-dose screen (10 μM), Non-small Cell Lung Cancer; assay type: cell-based; conditions: Homo sapiens, read-out: Growth percent rate
# SK-MEL-28 = experiment: NCI60 one-dose screen (10 μM), Melanoma; assay type: cell-based; conditions: Homo sapiens
# ACHN = experiment: NCI60 one-dose screen (10 μM), Renal Cancer; assay type: cell-based; conditions: Homo sapiens, read-out: Growth percent rate
# SK-MEL-2 = experiment: NCI60 one-dose screen (10 μM), Melanoma; assay type: cell-based; conditions: Homo sapiens
# RXF 393 = experiment: NCI60 one-dose screen (10 μM), Renal Cancer; assay type: cell-based, human; conditions: Homo sapiens
# OVCAR-8 = experiment: NCI60 one-dose screen (10 μM), Ovarian Cancer; assay type: cell-based; conditions: Homo sapiens
# RPMI-8226 = experiment: NCI60 one-dose screen (10 μM), Leukemia; assay type: cell-based; conditions: Homo sapiens
# HOP-62 = experiment: NCI60 one-dose screen (10 μM), Non-small Cell Lung Cancer; assay type: cell-based; conditions: Homo sapiens
# SW-620 = experiment: NCI60 one-dose screen (10 μM), Colon Cancer; assay type: cell-based; conditions: Homo sapiens
# HT29 = experiment: NCI60 one-dose screen (10 μM), Colon Cancer; assay type: cell-based; conditions: Homo sapiens
# OVCAR-4 = experiment: NCI60 one-dose screen (10 μM), Ovarian Cancer; assay type: cell-based; conditions: Homo sapiens
# MDA-MB-435 = experiment: NCI60 one-dose screen (10 μM), Melanoma; assay type: cell-based; conditions: Homo sapiens
# SF-295 = experiment: NCI60 one-dose screen (10 μM), CNS Cancer; assay type: cell-based; conditions: Homo sapiens
# CAKI-1 = experiment: NCI60 one-dose screen (10 μM), Renal Cancer; assay type: cell-based; conditions: Homo sapiens
# 786–0 = experiment: NCI60 one-dose screen (10 μM), Renal Cancer; assay type: cell-based; conditions: Homo sapiens
# M14 = experiment: NCI60 one-dose screen (10 μM), Melanoma; assay type: cell-based; conditions: Homo sapiens
# HCC-2998 = experiment: NCI60 one-dose screen (10 μM), Colon Cancer; assay type: cell-based; conditions: Homo sapiens
# HCT-116 = experiment: NCI60 one-dose screen (10 μM), Colon Cancer; assay type: cell-based; conditions: Homo sapiens
# SN12C = experiment: NCI60 one-dose screen (10 μM), Renal Cancer; assay type: cell-based; conditions: Homo sapiens, read-out: Growth percent rate
# SF-539 = experiment: NCI60 one-dose screen (10 μM), CNS Cancer; assay type: cell-based, human; conditions: Homo sapiens
# A549/ATCC = experiment: NCI60 one-dose screen (10 μM), Non-small Cell Lung Cancer; assay type: cell-based; conditions: Homo sapiens
# COLO 205 = experiment: NCI60 one-dose screen (10 μM), Colon Cancer; assay type: cell-based, human; conditions: Homo sapiens
# HCT-15 = experiment: NCI60 one-dose screen (10 μM), Colon Cancer; assay type: cell-based; conditions: Homo sapiens
# SF-268 = experiment: NCI60 one-dose screen (10 μM), CNS Cancer; assay type: cell-based; conditions: Homo sapiens
# NCI-H522 = experiment: NCI60 one-dose screen (10 μM), Non-small Cell Lung Cancer; assay type: cell-based; conditions: Homo sapiens
# TK-10 = experiment: NCI60 one-dose screen (10 μM), Renal Cancer; assay type: cell-based; conditions: Homo sapiens
# NCI-H23 = experiment: NCI60 one-dose screen (10 μM), Non-small Cell Lung Cancer; assay type: cell-based; conditions: Homo sapiens
# [1] = 10 μM, Non-small Cell Lung Cancer
structure (smiles),measurement,setting,value
CC[C@]12C=CCN3CC[C@@]4(c5ccc(OC)cc5N(C)[C@H]4[C@@](O)(C(=O)OC)[C@@H]1OC(=O)CCCN1CCN(Cc4ccc(F)cc4)CC1)[C@@H]32 [Compound 24],activity at 10 µM,"SNB-19; 10 μM, SNB-19, CNS Cancer, read-out: Growth percent rate",49.1%
same,activity at 10 µM,"UACC-257; 10 μM, UACC-257, Melanoma, read-out: Growth percent rate",-72.7%
same,activity at 10 µM,"HS 578T; 10 μM, HS 578T, Breast Cancer",56.4%
same,activity at 10 µM,"HL-60(TB); 10 μM, HL-60(TB), Leukemia, read-out: Growth percent rate",7.68%
same,activity at 10 µM,"OVCAR-3; 10 μM, OVCAR-3, Ovarian Cancer, read-out: Growth percent rate",50.6%
same,activity at 10 µM,"KM12; 10 μM, KM12, Colon Cancer, read-out: Growth percent rate",45.7%
same,activity at 10 µM,"CCRF-CEM; 10 μM, Leukemia",12.7%
same,activity at 10 µM,"MOLT-4; 10 μM, MOLT-4, Leukemia, read-out: Growth percent rate",6.28%
same,activity at 10 µM,"SK-MEL-5; 10 μM, SK-MEL-5, Melanoma, read-out: Growth percent rate",-98.3%
same,activity at 10 µM,NCI-H322M; [1],71.7%
same,activity at 10 µM,"LOX IMVI; 10 μM, Melanoma",5.04%
same,activity at 10 µM,"K-562; K562, 10 μM, K-562, Leukemia, read-out: Growth percent rate",0.4%
same,activity at 10 µM,"MCF7; 10 μM, MCF7, Breast Cancer, read-out: Growth percent rate",6.31%
same,activity at 10 µM,"MALME-3M; 10 μM, MALME-3M, Melanoma",-97.2%
same,activity at 10 µM,"IGROV1; IGROV-1, 10 μM, IGROV1, Ovarian Cancer, read-out: Growth percent rate",25.1%
same,activity at 10 µM,EKVX; [1],40.3%
same,activity at 10 µM,"SK-MEL-28; 10 μM, SK-MEL-28, Melanoma, read-out: Growth percent rate",-45.3%
same,activity at 10 µM,"ACHN; 10 μM, Renal Cancer",33.7%
same,activity at 10 µM,"SK-MEL-2; 10 μM, SK-MEL-2, Melanoma, read-out: Growth percent rate",-26.1%
same,activity at 10 µM,"RXF 393; 10 μM, RXF 393, Renal Cancer, read-out: Growth percent rate",-8.13%
same,activity at 10 µM,"OVCAR-8; 10 μM, OVCAR-8, Ovarian Cancer, read-out: Growth percent rate",66%
same,activity at 10 µM,"RPMI-8226; 10 μM, RPMI-8226, Leukemia, read-out: Growth percent rate",20.1%
same,activity at 10 µM,"HOP-62; 10 μM, HOP-62, Non-small Cell Lung Cancer, read-out: Growth percent rate",70.1%
same,activity at 10 µM,"SW-620; 10 μM, SW-620, Colon Cancer, read-out: Growth percent rate",64.3%
same,activity at 10 µM,"HT29; HT-29, 10 μM, HT29, Colon Cancer, read-out: Growth percent rate",1.44%
same,activity at 10 µM,"OVCAR-4; 10 μM, OVCAR-4, Ovarian Cancer, read-out: Growth percent rate",33%
same,activity at 10 µM,"MDA-MB-435; 10 μM, MDA-MB-435, Melanoma, read-out: Growth percent rate",38.7%
same,activity at 10 µM,"SF-295; 10 μM, SF-295, CNS Cancer, read-out: Growth percent rate",70.2%
same,activity at 10 µM,"CAKI-1; 10 μM, CAKI-1, Renal Cancer, read-out: Growth percent rate",5.13%
same,activity at 10 µM,"786–0; 10 μM, 786-0, Renal Cancer, read-out: Growth percent rate",31.4%
same,activity at 10 µM,"M14; 10 μM, M14, Melanoma, read-out: Growth percent rate",-77.9%
same,activity at 10 µM,"HCC-2998; 10 μM, HCC-2998, Colon Cancer, read-out: Growth percent rate",-62.4%
same,activity at 10 µM,"HCT-116; 10 μM, HCT-116, Colon Cancer, read-out: Growth percent rate",24.1%
same,activity at 10 µM,"SN12C; 10 μM, Renal Cancer",43.9%
same,activity at 10 µM,"SF-539; 10 μM, SF-539, CNS Cancer, read-out: Growth percent rate",14.7%
same,activity at 10 µM,"A549/ATCC; 10 μM, A549/ATCC, Non-small Cell Lung Cancer, read-out: Growth percent rate",51.2%
same,activity at 10 µM,"COLO 205; 10 μM, COLO 205, Colon Cancer, read-out: Growth percent rate",-59.6%
same,activity at 10 µM,"HCT-15; 10 μM, HCT-15, Colon Cancer, read-out: Growth percent rate",15.7%
same,activity at 10 µM,"SF-268; 10 μM, SF-268, CNS Cancer, read-out: Growth percent rate",42.5%
same,activity at 10 µM,"NCI-H522; 10 μM, NCI-H522, Non-small Cell Lung Cancer, read-out: Growth percent rate",27.3%
same,activity at 10 µM,"TK-10; 10 μM, TK-10, Renal Cancer, read-out: Growth percent rate",42.6%
same,activity at 10 µM,"NCI-H23; 10 μM, NCI-H23, Non-small Cell Lung Cancer, read-out: Growth percent rate",74.4%
CC[C@]12C=CCN3CC[C@@]4(c5ccc(OC)cc5N(C)[C@H]4[C@@](O)(C(=O)OC)[C@@H]1OC(=O)CCCN1CCN(C(c4ccc(F)cc4)c4ccc(F)cc4)CC1)[C@@H]32 [Compound 25],activity at 10 µM,"SNB-19; SNB-19, read-out: Growth percent rate",-93.6%
same,activity at 10 µM,"UACC-257; UACC-257, read-out: Growth percent rate",-78.2%
same,activity at 10 µM,HS 578T; Hs-578T,-60%
same,activity at 10 µM,"HL-60(TB); HL-60, read-out: Growth percent rate",-56.2%
same,activity at 10 µM,"OVCAR-3; OVCAR-3, read-out: Growth percent rate",-83%
same,activity at 10 µM,"KM12; KM12, read-out: Growth percent rate",-96.9%
same,activity at 10 µM,CCRF-CEM,-29.5%
same,activity at 10 µM,"MOLT-4; MOLT-4, read-out: Growth percent rate",-31.9%
same,activity at 10 µM,"SK-MEL-5; SK-MEL-5, read-out: Growth percent rate",-99.6%
same,activity at 10 µM,NCI-H322M,-71.7%
same,activity at 10 µM,LOX IMVI,-98.8%
same,activity at 10 µM,"K-562; K562, read-out: Growth percent rate",-1.7%
same,activity at 10 µM,"MCF7; MCF7, read-out: Growth percent rate",-88.2%
same,activity at 10 µM,MALME-3M; Malme-3M,-91%
same,activity at 10 µM,"IGROV1; IGROV-1, read-out: Growth percent rate",-77%
same,activity at 10 µM,EKVX,-89.8%
same,activity at 10 µM,"SK-MEL-28; SK-MEL-28, read-out: Growth percent rate",-96.5%
same,activity at 10 µM,ACHN,-69.4%
same,activity at 10 µM,"SK-MEL-2; SK-MEL-2, read-out: Growth percent rate",-89.5%
same,activity at 10 µM,"RXF 393; RXF 393, read-out: Growth percent rate",-94.5%
same,activity at 10 µM,"OVCAR-8; OVCAR-8, read-out: Growth percent rate",-69.3%
same,activity at 10 µM,"RPMI-8226; RPMI-8226, read-out: Growth percent rate",-50.1%
same,activity at 10 µM,"HOP-62; HOP-62, read-out: Growth percent rate",-77.2%
same,activity at 10 µM,"SW-620; SW-620, read-out: Growth percent rate",-78.5%
same,activity at 10 µM,"HT29; HT-29, read-out: Growth percent rate",-83.9%
same,activity at 10 µM,"OVCAR-4; OVCAR-4, read-out: Growth percent rate",-41.5%
same,activity at 10 µM,"MDA-MB-435; MDA-MB-435, read-out: Growth percent rate",-78.7%
same,activity at 10 µM,"SF-295; SF-295, read-out: Growth percent rate",-91%
same,activity at 10 µM,"CAKI-1; CAKI-1, read-out: Growth percent rate",-86.2%
same,activity at 10 µM,"786–0; 786-0, read-out: Growth percent rate",-96.4%
same,activity at 10 µM,"M14; M14, read-out: Growth percent rate",-94.8%
same,activity at 10 µM,"HCC-2998; HCC 2998, read-out: Growth percent rate",-97.2%
same,activity at 10 µM,"HCT-116; HCT-116, read-out: Growth percent rate",-98.6%
same,activity at 10 µM,SN12C,-95%
same,activity at 10 µM,"SF-539; SF-539, read-out: Growth percent rate",-98.5%
same,activity at 10 µM,"A549/ATCC; A549, read-out: Growth percent rate",-65.4%
same,activity at 10 µM,"COLO 205; COLO 205, read-out: Growth percent rate",-78.5%
same,activity at 10 µM,"HCT-15; HCT-15, read-out: Growth percent rate",-96.6%
same,activity at 10 µM,"SF-268; SF-268, read-out: Growth percent rate",-81.9%
same,activity at 10 µM,"NCI-H522; NCI-H522, read-out: Growth percent rate",-88.2%
same,activity at 10 µM,"TK-10; TK-10, read-out: Growth percent rate",-90.4%
same,activity at 10 µM,"NCI-H23; NCI-H23, read-out: Growth percent rate",-92.7%
